The text below walks through data of patent US11938122B2, “5-[[4-[2-[5-(1-hydroxyethyl)pyridin-2-yl]ethoxy]phenyl]methyl]-1,3- thiazolidine-2,4-dione for treating nonalcoholic fatty liver disease” (Minoryx Therapeutics S.L., priority 2016, dated 2024).

Assay type in all cases: in vitro ADME
One data set has as its target T1, CYP1A2 (Homo sapiens, UniProt P05177).
T1 construct: in incubations with a pool of human liver microsomes; from tissue; host or cells: pooled human liver microsomes
T1 sequence (P05177 1-516): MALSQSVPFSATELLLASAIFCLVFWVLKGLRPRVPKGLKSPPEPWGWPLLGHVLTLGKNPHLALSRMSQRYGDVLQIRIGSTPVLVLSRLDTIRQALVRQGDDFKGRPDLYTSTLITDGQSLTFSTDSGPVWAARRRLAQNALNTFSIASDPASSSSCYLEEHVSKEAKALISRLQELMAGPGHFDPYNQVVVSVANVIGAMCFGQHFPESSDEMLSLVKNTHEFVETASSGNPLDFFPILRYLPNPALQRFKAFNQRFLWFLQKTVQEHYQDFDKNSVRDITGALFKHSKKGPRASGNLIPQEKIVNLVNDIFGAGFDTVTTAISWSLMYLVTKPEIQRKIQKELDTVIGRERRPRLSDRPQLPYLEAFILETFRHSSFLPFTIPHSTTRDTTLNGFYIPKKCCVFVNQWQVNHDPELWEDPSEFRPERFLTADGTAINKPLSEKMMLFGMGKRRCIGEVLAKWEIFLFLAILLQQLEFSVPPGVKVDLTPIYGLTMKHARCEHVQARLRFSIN
As to the kind of experiment: CYP inhibition, cocktail incubation, pooled human liver microsomes. Conditions: reaction ACET. The protocol:
(§1) Inhibition was screened using a cocktail incubation with CYP specific substrates for eight major drug metabolizing CYP enzymes (CYPs 1A2, 2A6, 2B6, 2C8, 2C9, 2C19, 2D6 and 3A4) in incubations with a pool of human liver microsomes. In reversible inhibition, MIN-102 was incubated with buffer, microsomes, cofactor NADPH and CYP-specific substrate cocktail mix for 15 min. In TDI study, buffer and microsomes were preincubated with MIN-102 in the presence and absence of cofactor NADPH for 0 or 30 min to elucidate the possible time-dependency of inhibition. Secondary incubation was conducted with CYP-specific substrate cocktail mix for 30 min. MIN-102 was used at final concentrations of 0.01, 0.1, 1, 10, and 100 μM in both assays.
(In general: Liver microsomes are a subcellular fraction often used to study metabolism.)

A further data set concerns the target T2, CYP2A6 (Homo sapiens, UniProt P11509).
T2 construct: in incubations with a pool of human liver microsomes; from tissue; host or cells: pooled human liver microsomes
T2 sequence (P11509 1-494): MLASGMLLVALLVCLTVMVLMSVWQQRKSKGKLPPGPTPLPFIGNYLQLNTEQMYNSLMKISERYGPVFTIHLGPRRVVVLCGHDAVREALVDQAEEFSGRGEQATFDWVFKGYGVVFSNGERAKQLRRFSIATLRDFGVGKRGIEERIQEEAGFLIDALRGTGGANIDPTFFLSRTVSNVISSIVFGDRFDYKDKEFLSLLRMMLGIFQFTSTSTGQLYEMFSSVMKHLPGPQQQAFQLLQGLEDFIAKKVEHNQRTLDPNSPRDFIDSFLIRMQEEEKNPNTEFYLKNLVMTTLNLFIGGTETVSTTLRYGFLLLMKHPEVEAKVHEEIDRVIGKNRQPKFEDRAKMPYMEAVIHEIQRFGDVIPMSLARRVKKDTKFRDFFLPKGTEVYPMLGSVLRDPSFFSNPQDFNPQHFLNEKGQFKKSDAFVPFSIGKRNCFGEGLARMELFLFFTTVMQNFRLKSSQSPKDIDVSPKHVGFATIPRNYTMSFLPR
The description is as above. The conditions noted are these: reaction 7OH-COU. The protocol:
as §1

Data set [1] has as its target T3, CYP2B6 (Homo sapiens, UniProt P20813).
T3 construct: in incubations with a pool of human liver microsomes; from tissue; host or cells: pooled human liver microsomes
T3 sequence (P20813 1-491): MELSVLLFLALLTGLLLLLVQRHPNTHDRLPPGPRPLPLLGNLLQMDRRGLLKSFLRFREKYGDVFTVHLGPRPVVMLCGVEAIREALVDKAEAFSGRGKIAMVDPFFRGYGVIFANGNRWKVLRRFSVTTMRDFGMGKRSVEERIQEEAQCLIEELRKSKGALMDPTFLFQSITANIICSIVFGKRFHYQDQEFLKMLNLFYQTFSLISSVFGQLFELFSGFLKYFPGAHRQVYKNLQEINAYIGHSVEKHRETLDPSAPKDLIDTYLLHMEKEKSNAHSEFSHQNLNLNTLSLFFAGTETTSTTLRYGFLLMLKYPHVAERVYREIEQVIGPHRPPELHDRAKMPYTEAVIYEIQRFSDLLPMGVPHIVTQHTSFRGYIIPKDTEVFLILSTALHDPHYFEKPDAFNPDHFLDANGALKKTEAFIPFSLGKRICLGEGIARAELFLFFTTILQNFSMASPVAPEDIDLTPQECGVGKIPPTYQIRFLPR
The data set is described as above. The conditions noted are these: reaction OH-BUP. The protocol:
as §1

The target of another data set is T4, CYP2C19 (Homo sapiens, UniProt P33261).
T4 construct: in incubations with a pool of human liver microsomes; from tissue; host or cells: pooled human liver microsomes
The description is as above. The protocol: as §1

In the next data set the target is T5, CYP2C8 (Homo sapiens, UniProt P10632).
T5 construct: in incubations with a pool of human liver microsomes; from tissue; host or cells: pooled human liver microsomes
T5 sequence (P10632 1-490): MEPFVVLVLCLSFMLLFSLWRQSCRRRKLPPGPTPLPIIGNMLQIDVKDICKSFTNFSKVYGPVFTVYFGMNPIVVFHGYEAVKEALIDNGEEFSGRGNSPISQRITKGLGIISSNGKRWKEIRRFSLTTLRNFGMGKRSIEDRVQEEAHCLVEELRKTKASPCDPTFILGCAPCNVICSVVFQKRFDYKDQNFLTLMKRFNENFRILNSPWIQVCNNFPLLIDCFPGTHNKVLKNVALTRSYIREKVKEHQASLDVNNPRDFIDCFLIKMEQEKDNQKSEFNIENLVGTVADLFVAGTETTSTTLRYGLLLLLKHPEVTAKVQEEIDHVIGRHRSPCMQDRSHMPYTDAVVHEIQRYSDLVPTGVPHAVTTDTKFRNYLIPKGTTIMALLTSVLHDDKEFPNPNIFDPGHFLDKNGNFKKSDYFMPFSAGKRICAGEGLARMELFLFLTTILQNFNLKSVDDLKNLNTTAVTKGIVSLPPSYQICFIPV
The description is as above. Conditions: reaction OH-REPA. The procedure: as §1

In a further data set the target is T6, CYP2C9 (Homo sapiens, UniProt P11712).
T6 construct: in incubations with a pool of human liver microsomes; from tissue; host or cells: pooled human liver microsomes
Described as above. Conditions: reaction OH-DICL. The protocol:
as §1

The target in the next data set is T7, CYP2D6 (Homo sapiens, UniProt P10635).
T7 construct: in incubations with a pool of human liver microsomes; from tissue; host or cells: pooled human liver microsomes
The description is as above. The conditions noted are these: reaction O-dem-DEX. The procedure: as §1

The target of the next data set is T8, CYP3A4 (Homo sapiens, UniProt P08684).
T8 construct: in incubations with a pool of human liver microsomes; from tissue; host or cells: pooled human liver microsomes
The description is as above. The procedure:
as §1

The test system of data set [2] is major drug metabolizing cytochrome P450 (CYP) enzymes. In words: Reversible and time-dependent inhibition (TDI) of major CYP enzymes, human liver microsomes. Conditions: in vitro concentrations of 100 μM or lower. The protocol:
as §1

Data set [3] deals with CYP2B6. In words: CYP induction in cryopreserved human hepatocytes. Conditions: 50 μM, hepatocytes from 3 human donors.

T8 sequence (P08684 whole entry): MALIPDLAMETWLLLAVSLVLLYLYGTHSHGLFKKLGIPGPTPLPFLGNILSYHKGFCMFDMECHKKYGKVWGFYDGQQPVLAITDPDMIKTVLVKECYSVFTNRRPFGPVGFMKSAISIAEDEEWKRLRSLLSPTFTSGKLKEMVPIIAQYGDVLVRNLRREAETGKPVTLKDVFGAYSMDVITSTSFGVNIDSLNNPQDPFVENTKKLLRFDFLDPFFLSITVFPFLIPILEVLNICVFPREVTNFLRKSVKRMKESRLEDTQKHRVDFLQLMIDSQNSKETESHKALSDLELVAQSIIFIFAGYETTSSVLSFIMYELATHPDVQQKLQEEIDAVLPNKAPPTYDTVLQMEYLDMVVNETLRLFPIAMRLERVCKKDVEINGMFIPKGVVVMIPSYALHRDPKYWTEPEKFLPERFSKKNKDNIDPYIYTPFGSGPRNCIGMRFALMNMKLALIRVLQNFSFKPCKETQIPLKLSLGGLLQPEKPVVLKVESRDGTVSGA
T6 sequence (P11712 whole entry): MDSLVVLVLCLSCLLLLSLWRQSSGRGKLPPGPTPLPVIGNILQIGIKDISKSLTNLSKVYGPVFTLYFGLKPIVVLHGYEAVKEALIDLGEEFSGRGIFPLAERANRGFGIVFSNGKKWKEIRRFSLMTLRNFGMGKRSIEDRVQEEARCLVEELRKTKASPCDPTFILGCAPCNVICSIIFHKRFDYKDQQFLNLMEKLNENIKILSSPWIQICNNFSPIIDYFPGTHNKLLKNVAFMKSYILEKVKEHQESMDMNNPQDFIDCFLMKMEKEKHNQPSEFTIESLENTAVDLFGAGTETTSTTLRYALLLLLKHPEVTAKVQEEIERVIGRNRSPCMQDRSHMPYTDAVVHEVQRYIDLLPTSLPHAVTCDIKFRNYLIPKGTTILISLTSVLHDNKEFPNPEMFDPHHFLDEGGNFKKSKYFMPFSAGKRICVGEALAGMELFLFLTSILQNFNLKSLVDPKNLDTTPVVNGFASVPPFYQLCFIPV
T4 sequence (P33261 whole entry): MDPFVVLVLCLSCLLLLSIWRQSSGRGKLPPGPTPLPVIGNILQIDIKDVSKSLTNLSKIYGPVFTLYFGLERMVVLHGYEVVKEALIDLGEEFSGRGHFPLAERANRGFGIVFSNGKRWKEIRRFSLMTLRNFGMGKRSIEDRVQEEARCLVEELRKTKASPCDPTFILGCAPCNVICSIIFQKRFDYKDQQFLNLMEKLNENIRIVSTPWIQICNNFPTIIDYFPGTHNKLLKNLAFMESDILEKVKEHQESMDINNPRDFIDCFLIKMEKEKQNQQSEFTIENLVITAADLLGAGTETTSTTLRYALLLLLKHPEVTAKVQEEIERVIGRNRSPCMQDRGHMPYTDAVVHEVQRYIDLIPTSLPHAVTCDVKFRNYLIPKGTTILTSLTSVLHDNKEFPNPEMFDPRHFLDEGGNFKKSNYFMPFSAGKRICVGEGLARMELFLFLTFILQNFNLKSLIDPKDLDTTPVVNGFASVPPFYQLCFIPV
T7 sequence (P10635 whole entry): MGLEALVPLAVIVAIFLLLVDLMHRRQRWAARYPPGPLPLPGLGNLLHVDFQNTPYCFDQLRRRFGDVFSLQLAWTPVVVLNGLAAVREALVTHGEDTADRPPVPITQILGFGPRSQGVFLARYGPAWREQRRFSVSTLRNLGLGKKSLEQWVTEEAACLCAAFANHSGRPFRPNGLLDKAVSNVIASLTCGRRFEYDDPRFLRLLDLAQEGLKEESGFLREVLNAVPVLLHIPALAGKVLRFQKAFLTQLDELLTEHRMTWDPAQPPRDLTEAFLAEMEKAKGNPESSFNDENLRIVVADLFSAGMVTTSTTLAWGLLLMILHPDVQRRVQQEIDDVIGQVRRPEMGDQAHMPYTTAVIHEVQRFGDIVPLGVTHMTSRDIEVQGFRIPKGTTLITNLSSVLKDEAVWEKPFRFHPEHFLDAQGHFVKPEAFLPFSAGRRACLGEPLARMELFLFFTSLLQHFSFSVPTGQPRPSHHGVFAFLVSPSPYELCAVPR

By IC50 is commonly meant the concentration at which inhibition is half-maximal. A higher IC50 goes with weaker potency in that assay. In general, Ki refers to the dissociation constant of the complex between target and ligand, obtained from inhibition or displacement. With `CC(O)c1ccc(CCOc2ccc(CC3SC(=O)NC3=O)cc2)nc1` (racemic) [MIN-102, 5-[[4-[2-[5-(1-hydroxyethyl)pyridin-2-yl]ethoxy]phenyl]methyl]-1,3-thiazolidine-2,4-dione], the IC50 against CYP1A2 was > 100 µM; at CYP2A6, > 100 µM; at CYP2B6 [1], > 100 µM; against CYP2C19 (reaction 5-OH-OME), > 100 µM; against CYP2C19 (reaction dem-OME), > 100 µM; at CYP2C8, 102 µM. Moreover, the 50% inhibitory concentration (IC50) on CYP2C9 is 103 µM; at CYP2D6 it was > 100 µM; at CYP3A4 (reaction 1-OH-MDZ), > 100 µM; against CYP3A4 (reaction 3-OH-OME), > 100 µM; on CYP3A4 (reaction 6β-OH-TES), > 100 µM; against CYP3A4 (reaction SO-OME), > 100 µM. Also, the Ki came to 84 µM on CYP2C8 (read-out: Tentative Ki) and 52 µM on CYP2C9 (read-out: Tentative Ki). Besides, the “reversible or time-dependent inhibition towards major CYP enzymes” value in data set [2] was “did not cause remarkable reversible or time-dependent inhibition”. Moreover, the “increase in activity of CYP2B6 probe reaction” value in the data set on CYP2B6 [3] is given as “less than 20 % of the respective positive control induction”.
